A short description of data set [1]: Antiproliferative activity against human M12 cells after 72 hrs by WST1 assay. Type of data set: functional, cell-based. The following applies: M12, 72 h. (Tetrazolium assays rely on reduction of a dye to a coloured formazan, in cell work by metabolically active cells.)
A short description of data set [2]: Cytotoxicity against mouse NIH/3T3 cells after 72 hrs by WST1 assay. Type of data set: cell-based, NIH3T3. The following applies: read-out: TC50.
The subject of another data set is PC-3. The experiment in a line: Antiproliferative activity against human PC3 cells after 72 hrs by WST1 assay. The following applies: PC-3, 72 h. It is filed as functional, cell-based.
Data set [3] addresses C-C chemokine receptor type 5 (Homo sapiens, UniProt P51681). The experiment in a line: Antagonist activity at CCR5 (unknown origin) expressed in human MOLT4 cells assessed as inhibition of CCL5-induced calcium mobilization after 1 hr. Type of data set: functional, cell-based, MOLT-4. (In general: Calcium assays in cells follow changes in intracellular calcium, usually with a dye or a luminescent sensor.)

Some results are limits rather than exact numbers.

Sequence of C-C chemokine receptor type 5 (P51681 whole entry): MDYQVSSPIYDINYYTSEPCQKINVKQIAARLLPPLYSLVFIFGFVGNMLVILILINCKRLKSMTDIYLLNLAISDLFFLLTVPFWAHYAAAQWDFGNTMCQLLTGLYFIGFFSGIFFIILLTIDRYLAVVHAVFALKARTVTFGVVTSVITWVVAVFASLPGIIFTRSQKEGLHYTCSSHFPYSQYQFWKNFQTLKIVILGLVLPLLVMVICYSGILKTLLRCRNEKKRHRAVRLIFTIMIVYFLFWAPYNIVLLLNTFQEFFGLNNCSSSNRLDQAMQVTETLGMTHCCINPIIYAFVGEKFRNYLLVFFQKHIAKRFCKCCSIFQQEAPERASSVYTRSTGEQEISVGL

For `Cc1c(CNC(=O)c2ccc(-c3ccccc3)cc2)c(C)[n+]2c(c1CNC(=O)c1ccc(-c3ccccc3)cc1)CCC2`, the values for the IC50 (in data set [1]; in the data set on PC-3; in data set [3]) were 49.1 µM, 47.1 µM and 17.3 µM, respectively. Moreover, the CC50 at 72 h in data set [2] was found to be 228 µM.

On to `Cc1c(CNC(=O)c2ccc([N+](=O)[O-])cc2)c(C)[n+]2c(c1CNC(=O)c1ccc([N+](=O)[O-])cc1)CCC2`, for which the IC50 (in general, the concentration that gives 50% inhibition) is 161 µM in data set [1], > 300 µM with PC-3 and 67.7 µM in data set [3].

`Cc1c(CNC(=O)c2ccc(C(C)(C)C)cc2)c(C)[n+]2c(c1CNC(=O)c1ccc(C(C)(C)C)cc1)CCC2`: the IC50 was 59.9 µM in data set [1], 31 µM in the data set with PC-3 and 30.1 µM in data set [3]. The CC50 at 72 h in data set [2] came out at 83.2 µM.

On to `Cc1c(CNC(=O)c2ccc(C#N)cc2)c(C)[n+]2c(c1CNC(=O)c1ccc(C#N)cc1)CCC2`, for which the IC50 in data set [3] turned out to be 101 µM.

For `CSc1ccc(C(=O)NCc2c(C)c(CNC(=O)c3ccc(SC)cc3)c3[n+](c2C)CCC3)cc1`, the IC50 amounted to 252 µM in data set [1] and 102 µM in the data set with PC-3.

With `Cc1c(CNC(=O)c2ccc(C(F)(F)F)cc2)c(C)[n+]2c(c1CNC(=O)c1ccc(C(F)(F)F)cc1)CCC2`, the IC50 in data set [3] was found to be 121 µM.

In the case of `Cc1c(CNC(=O)c2ccc3ccccc3c2)c(C)[n+]2c(c1CNC(=O)c1ccc3ccccc3c1)CCC2`, the figures for the 50% inhibitory concentration (IC50) (in data set [1]; with PC-3; in data set [3]) were 192 µM, 101 µM and 12.7 µM, respectively.

On to `Cc1c(CNC(=O)c2ccc(C3CCCCC3)cc2)c(C)[n+]2c(c1CNC(=O)c1ccc(C3CCCCC3)cc1)CCC2`, for which the IC50 in data set [1] was 20.9 µM; with PC-3, 55.3 µM; in data set [3] it was 12.9 µM. Besides, in data set [2], the CC50 at 72 h is 43.4 µM.

`COc1ccc(C(=O)NCc2c(C)c(CNC(=O)c3ccc(OC)cc3)c3[n+](c2C)CCC3)cc1`: the results for the IC50 (in data set [1]; in the data set with PC-3; in data set [3]) were 127 µM, 154 µM and 69 µM, respectively.

Consider `Cc1c(CNC(=O)c2ccc(Cl)cc2)c(C)[n+]2c(c1CNC(=O)c1ccc(Cl)cc1)CCC2`, for which the concentration for half-maximal inhibition (IC50) in data set [1] was 135 µM; in the data set on PC-3 it was 179 µM; in data set [3] it was 46.2 µM. Moreover, the CC50 at 72 h in data set [2] came out at 263 µM.

`Cc1c(CNC(=O)c2ccc(C(C)C)cc2)c(C)[n+]2c(c1CNC(=O)c1ccc(C(C)C)cc1)CCC2`: the IC50 in data set [1] was determined as 120 µM; with PC-3 it was 168 µM; in data set [3], 26.8 µM. Further, in data set [2], the CC50 at 72 h is 270 µM.

Turning to `Cc1c(CNC(=O)c2ccc(Br)cc2)c(C)[n+]2c(c1CNC(=O)c1ccc(Br)cc1)CCC2`, the figures for the IC50 (in data set [1]; in the data set on PC-3; in data set [3]) were 92 µM, 147 µM and 38.5 µM, respectively. Besides, in data set [2], the CC50 at 72 h came to 182 µM.

With `Cc1c(CNC(=O)c2ccc(N)cc2)c(C)[n+]2c(c1CNC(=O)c1ccc(N)cc1)CCC2`, the IC50 in data set [3] was found to be 174 µM.

On to `Cc1ccc(C(=O)NCc2c(C)c(CNC(=O)c3ccc(C)cc3)c3[n+](c2C)CCC3)cc1`, for which the values for the half-maximal inhibitory concentration (IC50) (in data set [1]; with PC-3; in data set [3]) were 185 µM, 244 µM and 18.7 µM, respectively.

Regarding `CCc1ccc(C(=O)NCc2c(C)c(CNC(=O)c3ccc(CC)cc3)c3[n+](c2C)CCC3)cc1`, the IC50 was found to be 169 µM in data set [1], 162 µM in the data set with PC-3 and 23.9 µM in data set [3].

`Cc1c(CNC(=O)c2ccc(F)cc2)c(C)[n+]2c(c1CNC(=O)c1ccc(F)cc1)CCC2`: in data set [3], the concentration for half-maximal inhibition (IC50) is 80.9 µM.

As for `Cc1c(CNC(=O)c2ccccc2)c(C)[n+]2c(c1CNC(=O)c1ccccc1)CCC2`, the IC50 in data set [1] is 285 µM; in the data set on PC-3, 508 µM; in data set [3], 1.35 µM. In data set [2], the CC50 at 72 h stood at 212 µM.

Values taken from ChEMBL document CHEMBL3603778, “Exploration on natural product anibamine side chain modification toward development of novel CCR5 antagonists and potential anti-prostate cancer agents” (Bioorg Med Chem Lett, 2015).
